The text below walks through data of patent US7115584B2, “HIV-1 mutations selected for by β-2′,3′-didehydro-2′,3′-dideoxy-5-fluorocytidine” (priority 1999, dated 2006).

Each structure is given as a SMILES string. Read-outs that look alike come from different tables or passages of the source.

Assay [1] deals with acutely infected human PBM cells. Description: Median effect and combination index analysis, alone and in combination. It is filed as cell-based. Conditions: PBMC, 144 h.
A further assay deals with HIV-1LAV. As to the kind of experiment: Effect against HIV-1 and cloned viruses in human PBM cells. It counts as cell-based.
The next assay deals with M184VPITT. Described as above. It counts as cell-based.
Assay [2] has as its system 4X AZTPITT (67N, 70R, 215Y, 219Q). The assay is described as above. It counts as cell-based.
A further assay has as its system M184V/T215YPITT. The description is as above. It counts as cell-based.
For a further assay, the system named is 215/41PITT. The description is as above. It counts as cell-based.
The subject of assay [3] is G2-2PITT (103N, 41L, 184V, 210W, others). As to the kind of experiment: Effect against cloned viruses, in MT-2 cells. It is filed as cell-based, HIV-1. Also on record: unit not given beside the values.
The next assay deals with xxBRUPITT. As to the kind of experiment: Effect against HIV-1 and cloned viruses in human PBM cells. It is filed as cell-based.
Another assay has as its system T215YPITT. The description is as above. It is filed as cell-based.
Where [4] appears, read: EC50 resistant virus vs HIV-1LAV or xxBRUPITT, listed as β-D-D4FC.

With `Cc1cn([C@H]2C[C@H](N=[N+]=[N-])[C@@H](CO)O2)c(=O)[nH]c1=O` [AZT, 3′-azido-3′-deoxythymidine], the EC90 in [1] amounted to 32 nM.

For the compound `Nc1nc(=O)n([C@H]2C=C[C@@H](CO)O2)cc1F` [D-D4FC, β-2′,3′-didehydro-2′,3′-dideoxy-5-fluorocytidine], a half-maximal response in the assay with HIV-1LAV (listed as β-D-D4FC) (EC50) required 220 nM. For the same compound, the EC90 in the assay with HIV-1LAV (listed as β-D-D4FC) was found to be 1320 nM; in assay [2] (human PBM cells, 4X AZTPITT (67N, 70R, 215Y, 219Q), listed as β-D-D4FC), 460 nM. The FI50 with M184VPITT (setting [4]) worked out at 2; in assay [2] (4X AZTPITT, EC50 resistant virus vs HIV-1LAV or xxBRUPITT), 1; with M184V/T215YPITT (setting [4]), 1; in assay [3] (listed as β-D-D4FC), 0.2. The FI90 came out at 1 in assay [2] (4X AZTPITT, EC90 resistant virus vs HIV-1LAV or xxBRUPITT); 1 with M184V/T215YPITT (EC90 resistant virus vs HIV-1LAV or xxBRUPITT, listed as β-D-D4FC); 1 in the assay on 215/41PITT (EC90 resistant virus vs HIV-1LAV or xxBRUPITT).

`Nc1nc(=O)n([C@H]2C=C[C@@H](CO)O2)cc1F` [β-L-D4FC, β-2′,3′-didehydro-2′,3′-dideoxy-5-fluorocytidine]: the EC50 was determined as 34 nM in the assay with HIV-1LAV; 25 nM in the assay on xxBRUPITT; 3660 nM in the assay with M184VPITT (human PBM cells); 4.7 nM in the assay on T215YPITT; 8300 nM in the assay with M184V/T215YPITT (human PBM cells); 18 nM in the assay on 215/41PITT (human PBM cells). Also, the concentration for an effect of 90% (EC90) stood at 160 nM in the assay with HIV-1LAV; 88 nM with xxBRUPITT; 14300 nM with M184VPITT (human PBM cells); 30 nM in the assay with T215YPITT; 74600 nM with M184V/T215YPITT (human PBM cells); 66 nM with 215/41PITT (human PBM cells). In assay [3], the FI50 is on record as over 47.

Usually EC90 stands for the concentration at which the effect reaches the 90% level. As a reminder, the EC50 is the concentration that produces a half-maximal response.
